The structures appear in SMILES notation.

The text below walks through data of patent US20100004248A1, “Use of a Nitric Oxide Synthase Modulator for the Treatment of Cardiac Indications” (priority 2005, published 2010).

Data set [1] has as its system C57/BL6 WT mice subjected to TAC pressure overload. As to the kind of experiment: Transthoracic echocardiography in conscious TAC mice. The format is in vivo, mouse. An excerpt:
(§1) Male NOS3 null mice (NOS3^−/−) and C57/BL6 WT controls (8-11 weeks, Jackson Labs, Bar Harbor, Me., USA) were used. Pressure overload was produced by transverse aorta constriction (TAC). Briefly, The aortic arch was isolated by entering the extrapleural space between the second and third rib, and afterwards the transverse aorta was isolated between the right and left carotid arteries. A 7-0 prolene suture ligature was tied around the transverse aorta against a 27-gauge needle to produce a 65-70% constriction after the removal of the needle. After closing the chest, animals were extubated, and a subcutaneous injection of morphine sulphate 0.2 mg, was administered before they returned to their cages. Animal's ventilatory and circulatory status was checked every 30 minutes during the first 2 hours. Sham-operated mice underwent the same operation except for aortic constriction. […] Animals were randomized to receive placebo or BH4 (120 mg/kg/d) for the next 5 weeks. At the end of the study, i.e. at 9 weeks, animal were sacrificed to receive tissue or underwent in vivo PV-loop analysis. […] Control mice were subject to sham operations, and animals were studied 3-9 weeks following surgery. An additional group of wild-type animals were subjected to TAC for 3 weeks while co-treated with oral tetrahydrobiopterin (BH4) (Sigma-Aldrich) (1 mg/g food) mixed in their rodent chow, providing 5 mg/day based on 4-6 g daily diet^8.
(§2) Two different BH4 treatment protocols are used. For experiments related to FIGS. 1-7, where prevention of cardiac indications is described BH4 is provided orally as a treatment starting 2 days after TAC surgery (once mice are again eating oral diet). For those figures related to treatment of established cardiac indications, FIGS. 8-23, BH4 is provided orally but this is delayed for 4 weeks to establish substantial cardiac hypertrophy, remodeling, and NOS-uncoupling. Then the treatment is provided for the remaining 5 week period.
For folate studies, C57/BL6 WT were treated with folate (10 mg/kg/day) or with placebo for a 9 week period during which time the hearts were exposed to TAC.
In vivo cardiac morphology was assessed by transthoracic echocardiography (Acuson Sequoia C256, 13 MHz transducer, Siemens) in conscious mice. M-mode left ventricular (LV) end-systolic and end-diastolic dimensions were averaged from 3-5 beats. Left ventricular ejection fraction (LVEF) and percent fractional shortening (% FS) were calculated as: LVEF=[(LVEDD)^3-(LVESD)^3]/(LVEDD)^3×100; % FS=(LVEDD−LVESD)/LVEDD×100. Wall thickness of lateral freewall and intraventricular septum were averaged. Studies and analysis were performed blinded to heart condition.

Data set [2] has the same test system. In words: In vivo hemodynamics, PV loop analysis, in TAC mice. Also on record: species or system mouse. The conditions noted are these: TAC 3 weeks, oral co-treatment 1 mg/g food, mean ± sem.
Text: as §1, §2
In vivo left ventricular (LV) function was assessed by pressure-volume catheter^12,13. Mice were anesthetized with 1-2% isoflurane, urethane ([…], i.p.), etomidate (5-10 mg/kg, i.p.), and morphine (1-2 mg/kg, i.p.), underwent tracheostomy, and were ventilated with 6-7 μL/g tidal volume and 130 breaths/min. Volume expansion (12.5% human albumin, 50-100 μL over 5 min) was provided through a 30 G cannula via the right external jugular vein. The left ventricular apex was exposed through an incision between the 7-8th rib, and a catheter, specifically a 1.4 Fr PV catheter (SPR 839, Millar Instruments, Inc.), was advanced through the apex to lie along the longitudinal axis. Absolute volume was calibrated, and pressure-volume data was measured at steady state and during transient reduction of venous return as reported^13

Data set [3] has the same test system. As to the kind of experiment: Body weight and heart weight in mice subjected to transverse aortic constriction (TAC). It counts as in vivo, mouse. The conditions noted are these: TAC 3 weeks, oral co-treatment 1 mg/g food, mean ± sem.
Text: as §1, with “An additional group of wild-type animals were subjected to TAC for 3 weeks while co-treated with oral tetrahydrobiopterin (BH4) (Sigma-Aldrich) (1 mg/g food) mixed in their rodent chow, providing 5 mg/day based on 4-6 g daily diet^8.” left out

For data set [4] the following is noted: healthy subjects, cited from earlier work.
In data set [5] the test system is Adult myocytes isolated from wild-type C57/B16 mouse hearts. In words: Sarcomere shortening of isolated adult myocytes exposed to isoproterenol. It counts as cell-based. The following applies: myocytes from 3-4 weeks TAC hearts first treated with the anti-oxidant.
Data set [6] has as its system intact heart, beta-adrenergic stimulation by ISO. In words: Contractility response of intact heart to isoproterenol (ISO). The format is in vivo, mouse. From the text:
Regulation of acute beta-adrenergic stress by PDE5a inhibition (resulting in a rise in cGMP and activation of protein kinase G) requires the activity of nitric oxide synthase (NOS). […] This can be offset by chronic distal activation of the NO target protein soluble guanylate cyclase 9sGC). At the left are bars depicting the contractility response of an intact heart to ISO before and after co-administration of SIL. The ISO response is normally blunted by nearly 80%. The middle bars show data from mice with NOS inhibited by L-NAME (1 mg/L in drinking water). […] However, if one continues to treat hearts with the soluble guanylate cyclase activator (BAY 41-8543) for a week-all the while continuing NOS inhibition with L-NAME, the ability of SIL to suppress adrenergic stimulation is restored.

Another data set concerns the target T1, NOS (Mus musculus, UniProt P70313).
T1 construct: from tissue; host or cells: mouse left ventricular tissue homogenate
T1 sequence (P70313 2-1202): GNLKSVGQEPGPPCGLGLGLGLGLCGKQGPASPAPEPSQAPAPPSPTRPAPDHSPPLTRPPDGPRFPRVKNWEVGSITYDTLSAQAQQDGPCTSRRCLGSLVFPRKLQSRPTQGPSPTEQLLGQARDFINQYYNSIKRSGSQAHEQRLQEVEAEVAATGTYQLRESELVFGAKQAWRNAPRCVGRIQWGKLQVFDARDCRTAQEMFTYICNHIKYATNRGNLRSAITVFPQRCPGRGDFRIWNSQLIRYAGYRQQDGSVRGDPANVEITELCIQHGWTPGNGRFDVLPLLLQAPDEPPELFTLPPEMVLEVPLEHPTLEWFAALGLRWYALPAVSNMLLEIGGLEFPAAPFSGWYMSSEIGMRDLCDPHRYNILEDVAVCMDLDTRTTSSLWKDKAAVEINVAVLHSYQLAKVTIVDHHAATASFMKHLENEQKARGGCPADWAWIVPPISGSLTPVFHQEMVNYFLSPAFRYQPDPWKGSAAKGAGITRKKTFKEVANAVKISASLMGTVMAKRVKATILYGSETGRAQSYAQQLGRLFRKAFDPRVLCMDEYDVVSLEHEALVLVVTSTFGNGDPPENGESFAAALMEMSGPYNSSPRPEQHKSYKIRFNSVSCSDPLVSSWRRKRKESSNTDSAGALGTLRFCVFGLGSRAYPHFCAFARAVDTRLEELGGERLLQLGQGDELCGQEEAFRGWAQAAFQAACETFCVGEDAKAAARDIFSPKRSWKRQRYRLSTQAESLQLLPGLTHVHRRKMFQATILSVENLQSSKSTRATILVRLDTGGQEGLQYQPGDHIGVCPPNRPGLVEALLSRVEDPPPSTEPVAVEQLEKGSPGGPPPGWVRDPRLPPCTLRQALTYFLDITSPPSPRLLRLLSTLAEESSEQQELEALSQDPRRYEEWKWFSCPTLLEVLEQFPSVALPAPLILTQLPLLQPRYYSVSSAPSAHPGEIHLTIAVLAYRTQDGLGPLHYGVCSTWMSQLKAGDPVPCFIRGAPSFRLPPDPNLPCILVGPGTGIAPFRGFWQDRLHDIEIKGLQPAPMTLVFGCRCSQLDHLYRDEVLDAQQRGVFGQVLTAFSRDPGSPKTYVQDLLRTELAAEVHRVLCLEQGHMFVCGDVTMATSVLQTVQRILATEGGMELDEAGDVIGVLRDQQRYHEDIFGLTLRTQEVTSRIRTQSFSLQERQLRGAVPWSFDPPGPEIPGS
As to the kind of experiment: Luminol chemiluminescence of heart tissue extracts with or without co-incubation with L-NAME (NOS-derived O2−). The format is biochemical. The following applies: 1 mM co-incubation. The procedure:
Given the decline in NO-synthetic activity, it was next tested whether NOS-derived O2^− increased with TAC. Tissue extracts were subjected to luminol chemiluminescence assay with or without co-incubation with the NOS inhibitor L-NAME (1 mM). The relative contribution of NOS was minimal under basal conditions, but rose markedly (˜50%) after 3- and 9-weeks TAC (FIG. 6D). Control data in NOS3^−/− hearts confirmed this to be from NOS3 and not the other NOS isoforms.
Reactive oxygen species generation was examined by several independent methods. Superoxide production in left ventricular tissue homogenates was determined by luminol-enhanced chemiluminescence (EMD Biosciences). Flash frozen myocardium was homogenized in iced PBS buffer, centrifuged, and the precipitate re-suspended in assay buffer to a final concentration of 100 μM luminol following manufacturer's instructions. Phorbol-12-myristate-13-acetate or other oxidase stimulators were not used in the assay. Data were normalized by sample weight. […] Nitrotyrosine was also quantitatively assessed by ELISA assay (Oxis International).

Setting [7] is: WT mice, TAC 3 weeks, oral co-treatment 1 mg/g food, mean ± sem.
[8] abbreviates: TAC up to 9 weeks, folate 10 mg/kg/day vs placebo, p<0.05.

As for `C[C@H](O)[C@H](O)[C@H]1CNc2nc(N)[nH]c(=O)c2N1` [BH4, (6R)-5,6,7,8-tetrahydrobiopterin], in data set [1] (setting [7]), the “Fractional Shortening” value came to 61.7 ± 1.7 %, the “LV diameter Diastole” value is 2.87 ± 0.06 mm, the “LV diameter Systole” value came out at 1.12 ± 0.06 mm and the Wall thickness turned out to be 1.09 ± 0.03 mm. Further, in data set [2], the “Arterial Elastance” value is 10.6 ± 0.7 mmHg/μL, the “Ejection Fraction” value was 78.4 ± 5.8 %, the “End-diastolic Volume” value amounted to 20.5 ± 1.9 µL and the “End-systolic Elastance” value was 115.1 ± 9.6 mmHg/μL · g. Also, in data set [2], the “End-systolic Volume” value came to 4.8 ± 1.7 µL, the “Heart RateR” value is 603.3 ± 22.9 min⁻¹, the “LV Systolic Pressure” value was determined as 193.0 ± 1.7 mmHg and the “Peak Power Index” value was 75.5 ± 10.5 mmHg/s. In data set [2], the Tau stood at 3.5 ± 0.2 ms, the dPdtmn is reported as −15743 ± 1325 mmHg/s and the dPdtmx is recorded as 17003 ± 1125 mmHg/s. The “Heart Weight (HW)” value in data set [3] amounted to 170.3 ± 3.9 mg.

As to `CN1CC(=O)N2[C@H](c3ccc4c(c3)OCO4)c3[nH]c4ccccc4c3C[C@@H]2C1=O` [Tadalafil, tadalafil], in data set [4] (oral 20 mg dose), the “time of peak plasma concentration post-dose” value is recorded as “two”. In data set [4] (oral), the “apparent oral clearance (CL/F)” value is reported as 2.48 L/h and the mean elimination half-life entry is “about 17.5 h”.

For the compound `N[C@@H](CCC(=O)N[C@@H](CS)C(=O)NCC(=O)O)C(=O)O` [reduced glutathione], in data set [5], the “capacity of PDE5a inhibition to blunt the beta-adrenergic response after anti-oxidant pre-treatment” value is listed as “recovered”.

Take `Nc1nc(-c2nn(Cc3ccccc3F)c3ncccc23)nc(N)c1N1CCOCC1` [BAY 41-8543]: in data set [6] (acute administration of sGC activator, L-NAME for 1 week), the “restoration of the ability of SIL to suppress ISO stimulated contractility” value was “does not reverse this”. The “restoration of the ability of SIL to suppress adrenergic stimulation” value in data set [6] (sGC activator for a week while continuing L-NAME) was “restored”.

For the compound `COC(=O)[C@@H](N)CCCNC(=N)N[N+](=O)[O-]` [L-NAME], the “inhibition of luminol chemiluminescence” value on NOS (3 weeks and 9 weeks WT-TAC heart lysates) is listed as around 50%; at NOS (baseline (sham) heart lysates) it was below 15%.

With `Nc1nc2ncc(CNc3ccc(C(=O)N[C@@H](CCC(=O)O)C(=O)O)cc3)nc2c(=O)[nH]1` [folate, folic acid], in data set [1] (setting [8]), the LV mass entry is recorded as “reduced” and the cardiac dilation result is listed as “diminished”. For the same compound, the Ejection Fraction entry in data set [1] (TAC up to 9 weeks, folate 10 mg/kg/day vs placebo, p=0.05) is on record as “significantly improved”.
